Test results from article PMC11992225, “Antibacterial compounds against non-growing and intracellular bacteria” (npj Antimicrobials and Resistance, 2025).
“And” between values parts separate entries of the source, which are not always exact repeats. Equal entries are not always repeated.

Legend:
non-growing UPEC CFT073 = assay: Dose-dependent killing analysis (CFU spot-plating) of stationary-phase UPEC; type: cell-based, Escherichia coli
Outline: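 Non-growing (stationary-phase) UPEC CFT073 treated with compounds in 96-well format at 200 μl, then 10-fold serially diluted in PBS and 10 μl spots plated on LB agar. Plates incubated overnight at 37 °C; colonies counted at lowest resolvable dilution to give CFU. Three biological replicates.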

[1] = system: non-growing P. aeruginosa DSM1117; assay: Dose-dependent killing analysis (CFU spot-plating) of stationary-phase P. aeruginosa; type: cell-based, Pseudomonas aeruginosa; settings: P. aeruginosa; for log10(CFU/ml) of treated nongrowing bacteria (single replicates): before treatment 8.887
Protocol: The cultures were grown and treated for 24 h in 1:4 CA-MHB (pH 7.4).
For survival analysis, bacteria were cultivated as described for the dose–response dilution-regrowth assay. Assays with UPEC were conducted at the CBCS screening facility using 96-well plates with a 200 μl sample volume, and compounds were dispensed using the Echo® (Labcyte) system. P. aeruginosa and S. aureus samples were treated according to the protocol used for the dilution-regrowth experiments. Treated samples were serially diluted 10-fold in PBS, and 10 μl drops were spot-plated onto rectangular LB agar plates using either a Beckman NXP robot (for UPEC) or an Integra VIAFLO96 electronic pipette (for P. aeruginosa and S. aureus). The LB agar plates were incubated overnight at 37 °C and scanned. Colonies were counted at the spots of the lowest dilution where individual colonies could be accurately distinguished. Each colony was manually marked on a separate image layer using the GNU Image Manipulation Program, and counted using NIST’s Integrated Colony Enumerator (NICE 1.4) software. The experiments were performed in three biological replicates.

[2] = system: intracellular S. flexneri 5a M90T in TC7 cells; assay: microbe, parasite or virus in culture; type: cell-based, Shigella flexneri; settings: for IC50: Shigella flexneri, TC7, 14 h
[3] = E. coli in 1:4 CA-MHB (pH 7.4), drug concentration 0.25
[4] = E. coli in 1:4 CA-MHB (pH 7.4), drug concentration 0.25, before treatment 8.977
[5] = E. coli in 1:4 CA-MHB (pH 7.4), drug concentration 0.5
[6] = E. coli in 1:4 CA-MHB (pH 7.4), drug concentration 0.5, before treatment 8.977
[7] = E. coli in 1:4 CA-MHB (pH 7.4), drug concentration 1
[8] = E. coli in 1:4 CA-MHB (pH 7.4), drug concentration 1, before treatment 8.977
[9] = E. coli in 1:4 CA-MHB (pH 7.4), drug concentration 2.5
[10] = E. coli in 1:4 CA-MHB (pH 7.4), drug concentration 2.5, before treatment 8.977
[11] = E. coli in 1:4 CA-MHB (pH 7.4), drug concentration 5
[12] = E. coli in 1:4 CA-MHB (pH 7.4), drug concentration 5, before treatment 8.977
[13] = E. coli in 1:4 CA-MHB (pH 7.4), drug concentration 10
[14] = E. coli in 1:4 CA-MHB (pH 7.4), drug concentration 10, before treatment 8.977
[15] = TC7 cells infected with GFP-expressing S. flexneri, 14 h treatment

## C[C@@H]1CN(c2c(F)c(N)c3c(=O)c(C(=O)O)cn(C4CC4)c3c2F)C[C@H](C)N1 [Sparfloxacin]
non-growing UPEC CFT073; [3]
  killing, average Δlog10(CFU/ml): 0.241 log10(CFU/ml)
non-growing UPEC CFT073; [4]
  log10(CFU/ml) of treated nongrowing bacteria (single replicates): 8.954 log10(CFU/ml) and 8.778 log10(CFU/ml) and 8.477 log10(CFU/ml)
non-growing UPEC CFT073; [5]
  killing, average Δlog10(CFU/ml): 0.055 log10(CFU/ml)
non-growing UPEC CFT073; [6]
  log10(CFU/ml) of treated nongrowing bacteria (single replicates): 9.114 log10(CFU/ml) and 8.699 log10(CFU/ml) and 8.954 log10(CFU/ml)
non-growing UPEC CFT073; [7]
  killing, average Δlog10(CFU/ml): 0.246 log10(CFU/ml)
non-growing UPEC CFT073; [8]
  log10(CFU/ml) of treated nongrowing bacteria (single replicates): 9.114 log10(CFU/ml) and 8.301 log10(CFU/ml) and 8.778 log10(CFU/ml)
non-growing UPEC CFT073; [9]
  killing, average Δlog10(CFU/ml): 0.077 log10(CFU/ml)
non-growing UPEC CFT073; [10]
  log10(CFU/ml) of treated nongrowing bacteria (single replicates): 9.380 log10(CFU/ml) and 8.477 log10(CFU/ml) and 8.845 log10(CFU/ml)
non-growing UPEC CFT073; [11]
  killing, average Δlog10(CFU/ml): 0.562 log10(CFU/ml)
non-growing UPEC CFT073; [12]
  log10(CFU/ml) of treated nongrowing bacteria (single replicates): 8.602 log10(CFU/ml) and 8.342 log10(CFU/ml) and 8.301 log10(CFU/ml)
non-growing UPEC CFT073; [13]
  killing, average Δlog10(CFU/ml): 1.084 log10(CFU/ml)
non-growing UPEC CFT073; [14]
  log10(CFU/ml) of treated nongrowing bacteria (single replicates): 8.301 log10(CFU/ml) and 7.602 log10(CFU/ml) and 7.778 log10(CFU/ml)
[1]; drug concentration 0.1
  killing, average Δlog10(CFU/ml): 0.268 log10(CFU/ml)
  log10(CFU/ml) of treated nongrowing bacteria (single replicates): 8.602 log10(CFU/ml) and 9.079 log10(CFU/ml) and 8.176 log10(CFU/ml)
[1]; drug concentration 0.5
  killing, average Δlog10(CFU/ml): 0.923 log10(CFU/ml)
  log10(CFU/ml) of treated nongrowing bacteria (single replicates): 8.114 log10(CFU/ml) and 8.000 log10(CFU/ml) and 7.778 log10(CFU/ml)
[1]; drug concentration 2.5
  killing, average Δlog10(CFU/ml): 3.104 log10(CFU/ml)
  log10(CFU/ml) of treated nongrowing bacteria (single replicates): 5.903 log10(CFU/ml) and 6.845 log10(CFU/ml) and 4.602 log10(CFU/ml)
[1]; drug concentration 10
  killing, average Δlog10(CFU/ml): 4.887 log10(CFU/ml)
  log10(CFU/ml) of treated nongrowing bacteria (single replicates): =<4 log10(CFU/ml)
[2]; S. flexneri MIC in TSB versus intracellular IC50
  MIC:IC50 ratio: > 2
[2]
  IC50: 12 nM
[2]; [15]
  Fluorescence intensity (RFU), Mean, 0.25 x MIC: 5576.79 RFU
  Fluorescence intensity (RFU), Mean, 0.5 x MIC: 4270.29 RFU
  Fluorescence intensity (RFU), Mean, 2 x MIC: 2726.47 RFU
  Fluorescence intensity (RFU), Mean, 4 x MIC: 2375.69 RFU
  Fluorescence intensity (RFU), Mean, 8 x MIC: 1916.33 RFU
  Fluorescence intensity (RFU), Mean, 16 x MIC: 1615.39 RFU
  Fluorescence intensity (RFU), Mean, 32 x MIC: 1554.53 RFU
  Fluorescence intensity (RFU), Mean, MIC: 2934.67 RFU

## N[C@@H]1[C@H]2CN(c3nc4c(cc3F)c(=O)c(C(=O)O)cn4-c3ccc(F)cc3F)C[C@@H]12 [Trovafloxacin]
non-growing UPEC CFT073; [3]
  killing, average Δlog10(CFU/ml): 0.343 log10(CFU/ml)
non-growing UPEC CFT073; [4]
  log10(CFU/ml) of treated nongrowing bacteria (single replicates): 9.041 log10(CFU/ml) and 8.447 log10(CFU/ml) and 8.415 log10(CFU/ml)
non-growing UPEC CFT073; [5]
  killing, average Δlog10(CFU/ml): 0.539 log10(CFU/ml)
non-growing UPEC CFT073; [6]
  log10(CFU/ml) of treated nongrowing bacteria (single replicates): 8.699 log10(CFU/ml) and 8.362 log10(CFU/ml) and 8.255 log10(CFU/ml)
non-growing UPEC CFT073; [7]
  killing, average Δlog10(CFU/ml): 0.839 log10(CFU/ml)
non-growing UPEC CFT073; [8]
  log10(CFU/ml) of treated nongrowing bacteria (single replicates): 8.255 log10(CFU/ml) and 8.204 log10(CFU/ml) and 7.954 log10(CFU/ml)
non-growing UPEC CFT073; [9]
  killing, average Δlog10(CFU/ml): 1.866 log10(CFU/ml)
non-growing UPEC CFT073; [10]
  log10(CFU/ml) of treated nongrowing bacteria (single replicates): 7.255 log10(CFU/ml) and 6.903 log10(CFU/ml) and 7.176 log10(CFU/ml)
non-growing UPEC CFT073; [11]
  killing, average Δlog10(CFU/ml): 2.103 log10(CFU/ml)
non-growing UPEC CFT073; [12]
  log10(CFU/ml) of treated nongrowing bacteria (single replicates): 7.146 log10(CFU/ml) and 6.699 log10(CFU/ml) and 6.778 log10(CFU/ml)
non-growing UPEC CFT073; [13]
  killing, average Δlog10(CFU/ml): 2.608 log10(CFU/ml)
non-growing UPEC CFT073; [14]
  log10(CFU/ml) of treated nongrowing bacteria (single replicates): 6.462 log10(CFU/ml) and 6.322 log10(CFU/ml) (2×)
non-growing UPEC CFT073; E. coli in LPM (pH 5.5), drug concentration 0.25
  killing, average Δlog10(CFU/ml): 0.094 log10(CFU/ml)
non-growing UPEC CFT073; E. coli in LPM (pH 5.5), drug concentration 0.25, before treatment 7.350
  log10(CFU/ml) of treated nongrowing bacteria (single replicates): 7.146 log10(CFU/ml) and 6.544 log10(CFU/ml) and 8.079 log10(CFU/ml)
non-growing UPEC CFT073; E. coli in LPM (pH 5.5), drug concentration 0.5
  killing, average Δlog10(CFU/ml): 0.009 log10(CFU/ml)
non-growing UPEC CFT073; E. coli in LPM (pH 5.5), drug concentration 0.5, before treatment 7.350
  log10(CFU/ml) of treated nongrowing bacteria (single replicates): 7.146 log10(CFU/ml) and 6.732 log10(CFU/ml) and 8.146 log10(CFU/ml)
non-growing UPEC CFT073; E. coli in LPM (pH 5.5), drug concentration 1
  killing, average Δlog10(CFU/ml): 0.00468 log10(CFU/ml)
non-growing UPEC CFT073; E. coli in LPM (pH 5.5), drug concentration 1, before treatment 7.350
  log10(CFU/ml) of treated nongrowing bacteria (single replicates): 7.255 log10(CFU/ml) and 6.740 log10(CFU/ml) and 8.041 log10(CFU/ml)
non-growing UPEC CFT073; E. coli in LPM (pH 5.5), drug concentration 2.5
  killing, average Δlog10(CFU/ml): 0.225 log10(CFU/ml)
non-growing UPEC CFT073; E. coli in LPM (pH 5.5), drug concentration 2.5, before treatment 7.350
  log10(CFU/ml) of treated nongrowing bacteria (single replicates): 7.230 log10(CFU/ml) and 6.447 log10(CFU/ml) and 7.699 log10(CFU/ml)
non-growing UPEC CFT073; E. coli in LPM (pH 5.5), drug concentration 5
  killing, average Δlog10(CFU/ml): 0.336 log10(CFU/ml)
non-growing UPEC CFT073; E. coli in LPM (pH 5.5), drug concentration 5, before treatment 7.350
  log10(CFU/ml) of treated nongrowing bacteria (single replicates): 6.699 log10(CFU/ml) and 6.763 log10(CFU/ml) and 7.580 log10(CFU/ml)
non-growing UPEC CFT073; E. coli in LPM (pH 5.5), drug concentration 10
  killing, average Δlog10(CFU/ml): 0.963 log10(CFU/ml)
non-growing UPEC CFT073; E. coli in LPM (pH 5.5), drug concentration 10, before treatment 7.350
  log10(CFU/ml) of treated nongrowing bacteria (single replicates): 6.146 log10(CFU/ml) and 6.415 log10(CFU/ml) and 6.602 log10(CFU/ml)
[1]; drug concentration 0.1
  killing, average Δlog10(CFU/ml): 0.236 log10(CFU/ml)
  log10(CFU/ml) of treated nongrowing bacteria (single replicates): 8.699 log10(CFU/ml) and 8.954 log10(CFU/ml) and 8.301 log10(CFU/ml)
[1]; drug concentration 0.5
  killing, average Δlog10(CFU/ml): 0.717 log10(CFU/ml)
  log10(CFU/ml) of treated nongrowing bacteria (single replicates): 7.954 log10(CFU/ml) (2×) and 8.602 log10(CFU/ml)
[1]; drug concentration 2.5
  killing, average Δlog10(CFU/ml): 1.077 log10(CFU/ml)
  log10(CFU/ml) of treated nongrowing bacteria (single replicates): 7.778 log10(CFU/ml) and 7.954 log10(CFU/ml) and 7.699 log10(CFU/ml)
[1]; drug concentration 10
  killing, average Δlog10(CFU/ml): 1.687 log10(CFU/ml)
  log10(CFU/ml) of treated nongrowing bacteria (single replicates): 7.301 log10(CFU/ml) (2×) and 7.000 log10(CFU/ml)
[2]
  IC50: 37 nM
[2]; TC7 cells infected with GFP-expressing S. flexneri, 14 h treatment, 0.125 x MIC
  Fluorescence intensity (RFU), Mean, 0.125 x MIC: 8837.54 RFU
[2]; [15]
  Fluorescence intensity (RFU), Mean, 0.25 x MIC: 8024.79 RFU
  Fluorescence intensity (RFU), Mean, 0.5 x MIC: 6129.12 RFU
  Fluorescence intensity (RFU), Mean, 2 x MIC: 2933.5 RFU
  Fluorescence intensity (RFU), Mean, 4 x MIC: 2559.17 RFU
  Fluorescence intensity (RFU), Mean, 8 x MIC: 2016.56 RFU
  Fluorescence intensity (RFU), Mean, 16 x MIC: 1696.44 RFU
  Fluorescence intensity (RFU), Mean, 32 x MIC: 1579.94 RFU
  Fluorescence intensity (RFU), Mean, MIC: 3277.92 RFU
